Patent US20230149732A1, “COMBINED NITRITE AND LIGHT TREATMENT TO PREVENT DEVICE THROMBOSIS” (Wake Forest University Health Sciences, priority 2021, published 2023)
Read-outs that look alike come from different tables or passages of the source.

How the values were obtained:
[1] = molecular target: T1, partially deoxygenated hemoglobin (Homo sapiens, UniProt P68871+P69905); conditions: cited from earlier work
clotting in blood = conditions: TEG, RBCs present
Experimental: (§1) The effects of nitrite and light on reducing clotting in blood were conducted by comparing sham, light alone, nitrite alone and the combination.

[2] = tested on: device thrombosis in extracorporeal circuit
Description: Two Mito MD LED sources were employed with the tubing sandwiched in between. The power of the LEDs is reported as 100 mW/cm^2 at 6 inches from the device and we measured 35 mW/cm^2 at this distance and 230 mW/cm^2 directly at the surface. […] The system was also maintained at the desired temperature using a circulating water bath attached to the oxygenator representative of use conditions. The blood was deoxygenated by flowing nitrogen through the oxygenator to mimic venous blood from a real patient and hemoglobin saturation was about 70% or so, as tested using absorption spectroscopy and our integrating sphere detector for turbid samples.
Disclosed herein are outcome measures to test the efficacy of the device, including: • (1) Patency of the device. Whether enough clotting will occur to impede flow enough so that the experiment needs to be stopped before six hours of testing. The time to stopping was recorded. • (2) Pressure as a function of time. The pressure in the circuit was recorded every 15 minutes with higher pressures indicating occlusive clotting. • (3) Visual inspection for clotting. Tubing was examined thoroughly every 15 minutes with flashlights and photographs were taken to record the size and number of visual clots. • (4) Blood aliquots were collected every 15 minutes to measure oxygenation state of hemoglobin (so the nitrogen flow can be adjusted). A spectrometer was used with an integrating sphere that collected scattered light to get true absorption of turbid samples. […] RBCS were sedimented and hemoglobin concentration in the supernatant determined by absorption spectroscopy. • (7) Platelet count was assessed as part of a complete blood count. Platelet count goes down as platelets adhere and aggregate in the system.
In addition, nitrite was measured to assess the effective dose that a patient may encounter. […] For all experiments, the same blood was used for control and treatment and the same amount of calcium infused at the same timepoints.
The system was tested by comparing treatment to control in terms of patency, platelet count, and platelet activation.

[3] = molecular target: T1, partially deoxygenated hemoglobin; conditions: hemoglobin 10 mM (in heme) in blood, pseudo first order
Experimental: In addition, nitrite was measured to assess the effective dose that a patient may encounter. […] For all experiments, the same blood was used for control and treatment and the same amount of calcium infused at the same timepoints. For the example shown in FIG. 11A, no calcium was infused. […] For the example shown in FIG. 11B, calcium additions was added at the 1.5 hour mark and at each of the next two 0.5 hour intervals (1.5 mM; 0.75 mM; and 0.375 mM).

clotting = tested on: clotting
Experimental: (§2) Also disclosed herein is a mechanism though which […] potentiates the anti-thrombotic effects of far-red light. […] The effects of combining far-red light and nitrite in inhibiting several different measures of clotting using different agonists are disclosed herein.
as §1

platelet adhesion = conditions: dual treatment: nitrite plus far-red light
Description: as §2

platelet activation = assay: Inhibition of platelet activation, with or without RBCs (flow cytometry); type: cell-based; conditions: for effect on nitrite-mediated inhibition of platelet activation by RBCs: NO scavenger or RBC surface thiol blocker added
Description: This disclosure also teaches that far-red and near infrared light dramatically enhance nitrite bioactivation by RBCs. Far-red light (about 600-750 nm) and near infrared light (about 700-1400 nm) have been used clinically for improved wound healing, tissue generation, reduction of inflammation, and increasing cerebral blood flow to improve cognition. The mechanism for these actions has been attributed generally to increased blood flow, tissue oxygenation, and angiogenesis secondary to improved mitochondrial function attributed to cytochrome c oxidase redox state and function. However, it was not clear how improvement in cytochrome c oxidation state could account for increased blood flow and other effects of infrared/far-red light. […] The data shown in FIG. 2 strongly supports this premise (note scales). Previous work using inhibition of platelet activation as a measure of nitrite bioactivation has shown that (i) RBCs are necessary for nitrite-mediated inhibition of platelet activation (while other NO donors' ability to inhibit platelet activation is blunted by the presence of RBCs), (ii) this action is abrogated by an NO scavenger, (iii) this action is achieved with plasma levels of nitrite easily attained through dietary nitrate interventions, and (iv) this action involves RBC surface thiols. […] This is attributed to accumulating steady state NO species on the surface of the RBCs. The effects of far-red light without nitrite treatment are small and variable, perhaps reflecting small amounts of nitrite present at steady state and varying between individuals due to diet and other factors.
Nitrite addition to activated platelets in the absence of RBCs has no effect (FIG. 2A—note scale is expanded). […] This interaction is depicted in FIG. 1. It has been shown that Hb is the primary erythrocytic nitrite reductase and that nitrite bioactivation by RBCs involves NO. […] Nitrite is the best suited NO donor for treating thrombosis as it requires the presence of RBCs to work while others efficacy is blunted by RBCs (via the reaction described in Equation 2).
where the ferric hemin reversibly binds NO, GSH reduces the hemin and forms a thiyl radical which then reacts with NO, similar to a mechanism proposed for DNIC formation. The formation of the thiyl radical is supported by lower GSNO yield when the thiyl radical trap 5,5-dimethyl-1-pyrroline N-oxide (DMPO) is added (FIG. 4D). Thus, this system of hemin, NO and thiol (all present in the RBC after nitrite addition) yield both species of interest: nitrosothiols and heme-nitrosyls (which can bind to a surface thiol). Studies using RBCs. […] This inhibition was abrogated by pre-treatment with the thiol binding agent N-ethyl maleimide (NEM) (FIG. 5).

oxygenated Hb (OxyHb) = oxygenated Hb (OxyHb) (Homo sapiens, UniProt P68871+P69905); conditions: NO + HbO2; cited from earlier work
deoxygenated RBCs = assay: Heme nitrosyl export from deoxygenated RBCs incubated with nitrite (tri-iodide chemiluminescence assay); type: cell-based; conditions: with versus without hemopexin

T1 sequence (P69905 2-142 limits assumed): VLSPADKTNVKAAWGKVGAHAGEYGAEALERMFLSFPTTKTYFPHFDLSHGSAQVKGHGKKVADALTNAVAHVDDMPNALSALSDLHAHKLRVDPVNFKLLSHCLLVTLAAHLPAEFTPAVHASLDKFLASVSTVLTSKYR
T1 sequence (P68871 2-147 limits assumed): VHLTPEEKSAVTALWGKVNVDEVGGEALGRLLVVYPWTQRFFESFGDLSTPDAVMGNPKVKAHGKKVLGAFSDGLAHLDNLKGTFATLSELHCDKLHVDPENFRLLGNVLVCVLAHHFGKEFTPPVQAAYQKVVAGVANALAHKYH
Chain of oxygenated Hb (OxyHb) (P69905 2-142 limits assumed): as the sequence (P69905 2-142 limits assumed) above
Chain of oxygenated Hb (OxyHb) (P68871 2-147 limits assumed): as the sequence (P68871 2-147 limits assumed) above

O=NO [nitrite]
bimolecular rate constant [1]: 1 M⁻¹ s⁻¹
rate of clot growth (clotting in blood): decreasing the rate of clot growth
time to initial fibrin formation (R-time) (clotting in blood): increasing the time to initial fibrin formation
survival time of treated system longer than control circuit, average ([2]; combined nitrite and red light): 220%
decrease in the number of platelets, first to last sample ([2]; treated system (nitrite plus light), complete blood count, averaged): 32%
pressure in the circuit ([2]; whole blood, calcium infused, nitrite plus far-red light from the 1.5 hour mark): decreased to less than that of the control circuit
lifetime of the nitrite [3]: about 100 seconds
reduction of clotting (clotting; combination of nitrite and light, all assays): universally effective in reducing clotting
reduction of clotting (clotting; monotherapy): mixed effects
platelet adhesion (platelet adhesion): decreases platelet adhesion
effect on platelet activation (platelet activation; RBCs present, nitrite alone): decreases platelet activation
inhibition of platelet activation (platelet activation; RBCs present, nitrite plus far-red light 660 nm, ~5 min): dramatically enhances nitrite bioactivation by RBCs
effect on platelet activation (platelet activation; nitrite added to activated platelets, absence of RBCs): has no effect

CC1(C)N([O])C(c2ccc(C(=O)O)cc2)=[N+]([O-])C1(C)C [CPTIO]
effect on nitrite-mediated inhibition of platelet activation by RBCs (platelet activation): abrogated

CC(=O)N[C@H](C(=O)O)C(C)(C)SN=O (racemic) [SNAP, S-Nitroso-N-acetylpenicillamine]
platelet activation with RBCs treated with nitrosating agent, then washed (platelet activation; RBCs treated with SNAP, excess removed): caused the RBCs to inhibit platelet activation
effect of light illumination on platelet activation with treated RBCs (platelet activation; RBCs treated, washed, then illuminated): Light potentiates effects

[N]=O [NO, Nitric oxide]
rate constant (oxygenated Hb (OxyHb)): 6-8×10^7 M^−1s^−1

CCN1C(=O)C=CC1=O [NEM, N-ethyl maleimide]
effect on platelet inhibition by SNAP-treated RBCs (platelet activation; pre-treatment with thiol binding agent): abrogated

O=C(O)c1cc(SSc2ccc([N+](=O)[O-])c(C(=O)O)c2)ccc1[N+](=O)[O-] [DTNB]
effect on nitrite-mediated inhibition of platelet activation by RBCs (platelet activation): abrogates inhibition of platelets

B1: hemopexin: a plasma protein with extremely high affinity for free heme (protein, UniProt P02790 24-462, looked up)
Hemopexin: TPLPPTSAHGNVAEGETKPDPDVTERCSDGWSFDATTLDDNGTMLFFKGEFVWKSHKWDRELISERWKNFPSPVDAAFRQGHNSVFLIKGDKVWVYPPEKKEKGYPKLLQDEFPGIPSPLDAAVECHRGECQAEGVLFFQGDREWFWDLATGTMKERSWPAVGNCSSALRWLGRYYCFQGNQFLRFDPVRGEVPPRYPRDVRDYFMPCPGRGHGHRNGTGHGNSTHHGPEYMRCSPHLVLSALTSDNHGATYAFSGTHYWRLDTSRDGWHSWPIAHQWPQGPSAVDAAFSWEEKLYLVQGTQVYVFLTKGGYTLVSGYPKRLEKEVGTPHGIILDSVDAAFICPGSSRLHIMAGRRLWWLDLKSGAQATWTELPWPHEKVDGALCMEKSLGPNSCSANGPGLYLIHGPNLYCYSDVEKLNAAKALPQPQNVTSLLGCTH
NO species in the supernatant (deoxygenated RBCs): significantly greater NO
